Results published in ChEMBL document CHEMBL6177952, “Exploring chloro-isoxazole compounds inspired on tetrahydrofuran neolignans as promising antileishmanial agents” (Eur J Med Chem, 2025).
Activity calls are given as the source filed them. The calls are words filed in the database; no cut-off is given here.

How the values were obtained:
[1] = tested on: Leishmania amazonensis; assay: Antileishmanial activity against leishmania amazonensis infected in BALB/c mouse assessed as reduction in viable parasites in footpad tissue at 5 mg/kg, ILES measured after 65 days post infection relative to control; format: functional; settings: time 65 day
[2] = Selectivity ratio of CC50 for cytotoxicity against BALB/c mouse Peritoneal macrophage assessed as inhibition of cell growth to IC50 for antileishmanial activity against leishmania amazonensis IFLA/BR/1967/PH8 promastigotes infected in mouse Peritoneal macrophage; format: toxicity, cell-based; settings: peritoneal macrophages, read-out: Ratio CC50/IC50
[3] = tested on: Leishmania amazonensis; assay: Antileishmanial activity against leishmania amazonensis IFLA/BR/1967/PH8 intracellular amastigote infected in mouse Peritoneal macrophage incubated for 24 hrs; format: functional, organism-based; settings: IFLA/BR/1967/PH8, Peritoneal macrophage
[4] = tested on: Leishmania amazonensis; assay: Antileishmanial activity against leishmania amazonensis infected in BALB/c mouse assessed as reduction in footpad swelling at 5 mg/kg, ILES measured at week 5; format: functional, organism-based; settings: time 5.0 weeks
[5] = tested on: Leishmania amazonensis; assay: Antileishmanial activity against leishmania amazonensis infected in BALB/c mouse assessed as reduction in parasite load in footpad tissue at 5 mg/kg, ILES measured after 65 days post infection by limiting dilution assay; format: functional, organism-based; settings: time 65.0 day
[6] = tested on: Mitochondrial membrane; assay: Induction of mitochondrial membrane potential in Leishmania amazonensis promastigotes at 38.1 uM measured at 48 hrs by flow cytometry analysis; format: cell membranes
[7] = tested on: Mitochondrial membrane; assay: Induction of mitochondrial membrane potential in Leishmania amazonensis promastigotes at 38.1 uM measured at 72 hrs by flow cytometry analysis; format: cell membranes
[8] = Mutagenicity in Salmonella typhimurium TA102 assessed as number of revertant colonies per plate at 1500 microg/ml in presence of S9 fraction by Ames test; format: toxicity, subcellular; settings: salmonella enterica subsp. enterica serovar typhimurium, dose 1500 µg/ml
[9] = Mutagenicity in Salmonella typhimurium TA98 assessed as number of revertant colonies per plate at 50 microg/ml by Ames test; format: toxicity; settings: salmonella enterica subsp. enterica serovar typhimurium; dose 50 µg/ml
[10] = Mutagenicity in Salmonella typhimurium TA98 assessed as number of revertant colonies per plate at 150 microg/ml by Ames test; format: toxicity; settings: salmonella enterica subsp. enterica serovar typhimurium; dose 150 µg/ml
[11] = Mutagenicity in Salmonella typhimurium TA98 assessed as number of revertant colonies per plate at 500 microg/ml by Ames test; format: toxicity; settings: salmonella enterica subsp. enterica serovar typhimurium; dose 500 µg/ml
[12] = Mutagenicity in Salmonella typhimurium TA98 assessed as number of revertant colonies per plate at 1500 microg/ml by Ames test; format: toxicity; settings: salmonella enterica subsp. enterica serovar typhimurium; dose 1500 µg/ml
[13] = Mutagenicity in Salmonella typhimurium TA100 assessed as number of revertant colonies per plate at 50 microg/ml by Ames test; format: toxicity; settings: salmonella enterica subsp. enterica serovar typhimurium; dose 50 µg/ml
[14] = Mutagenicity in Salmonella typhimurium TA100 assessed as number of revertant colonies per plate at 150 microg/ml by Ames test; format: toxicity; settings: salmonella enterica subsp. enterica serovar typhimurium; dose 150 µg/ml
[15] = Mutagenicity in Salmonella typhimurium TA100 assessed as number of revertant colonies per plate at 500 microg/ml by Ames test; format: toxicity; settings: salmonella enterica subsp. enterica serovar typhimurium; dose 500 µg/ml
[16] = Mutagenicity in Salmonella typhimurium TA100 assessed as number of revertant colonies per plate at 1500 microg/ml by Ames test; format: toxicity; settings: salmonella enterica subsp. enterica serovar typhimurium; dose 1500 µg/ml
[17] = Mutagenicity in Salmonella typhimurium TA100 assessed as number of revertant colonies per plate at 5000 microg/ml by Ames test; format: toxicity; settings: salmonella enterica subsp. enterica serovar typhimurium; dose 5000 µg/ml
[18] = Mutagenicity in Salmonella typhimurium TA102 assessed as number of revertant colonies per plate at 50 microg/ml in presence of S9 fraction by Ames test; format: toxicity, subcellular; settings: salmonella enterica subsp. enterica serovar typhimurium, dose 50 µg/ml
[19] = Mutagenicity in Salmonella typhimurium TA102 assessed as number of revertant colonies per plate at 50 microg/ml by Ames test; format: toxicity; settings: salmonella enterica subsp. enterica serovar typhimurium; dose 50 µg/ml
[20] = Mutagenicity in Salmonella typhimurium TA102 assessed as number of revertant colonies per plate at 150 microg/ml in presence of S9 fraction by Ames test; format: toxicity, subcellular; settings: salmonella enterica subsp. enterica serovar typhimurium, dose 150 µg/ml
[21] = Mutagenicity in Salmonella typhimurium TA102 assessed as number of revertant colonies per plate at 150 microg/ml by Ames test; format: toxicity; settings: salmonella enterica subsp. enterica serovar typhimurium; dose 150 µg/ml
[22] = Mutagenicity in Salmonella typhimurium TA102 assessed as number of revertant colonies per plate at 500 microg/ml in presence of S9 fraction by Ames test; format: toxicity, subcellular; settings: salmonella enterica subsp. enterica serovar typhimurium, dose 500 µg/ml
[23] = Mutagenicity in Salmonella typhimurium TA102 assessed as number of revertant colonies per plate at 500 microg/ml by Ames test; format: toxicity; settings: salmonella enterica subsp. enterica serovar typhimurium; dose 500 µg/ml
[24] = Mutagenicity in Salmonella typhimurium TA102 assessed as number of revertant colonies per plate at 5000 microg/ml in presence of S9 fraction by Ames test; format: toxicity, subcellular; settings: salmonella enterica subsp. enterica serovar typhimurium, dose 5000 µg/ml
[25] = Mutagenicity in Salmonella typhimurium TA102 assessed as number of revertant colonies per plate at 5000 microg/ml by Ames test; format: toxicity; settings: salmonella enterica subsp. enterica serovar typhimurium; dose 5000 µg/ml
[26] = tested on: Leishmania amazonensis; assay: Antileishmanial activity against Leishmania amazonensis promastigotes assessed as early apoptotic parasites at 38.1 uM incubated for 24 hrs by Annexin V/7-AAD staining based flow cytometry analysis relative to control; format: functional
[27] = tested on: Leishmania amazonensis; assay: Antileishmanial activity against Leishmania amazonensis promastigotes assessed as late apoptotic parasites at 38.1 uM incubated for 24 hrs by Annexin V/7-AAD staining based flow cytometry analysis relative to control; format: functional
[28] = tested on: Leishmania amazonensis; assay: Antileishmanial activity against Leishmania amazonensis promastigotes assessed as viable apoptotic parasites at 38.1 uM incubated for 24 hrs by Annexin V/7-AAD staining based flow cytometry analysis relative to control; format: functional
[29] = tested on: Leishmania amazonensis; assay: Antileishmanial activity against Leishmania amazonensis promastigotes assessed as necrotic parasites at 38.1 uM incubated for 24 hrs by Annexin V/7-AAD staining based flow cytometry analysis relative to control; format: functional
[30] = tested on: Leishmania amazonensis; assay: Antileishmanial activity against Leishmania amazonensis promastigotes assessed as early apoptotic parasites at 38.1 uM incubated for 48 hrs by Annexin V/7-AAD staining based flow cytometry analysis relative to control; format: functional
[31] = tested on: Leishmania amazonensis; assay: Antileishmanial activity against Leishmania amazonensis promastigotes assessed as late apoptotic parasites at 38.1 uM incubated for 48 hrs by Annexin V/7-AAD staining based flow cytometry analysis relative to control; format: functional
[32] = tested on: Leishmania amazonensis; assay: Antileishmanial activity against Leishmania amazonensis promastigotes assessed as viable apoptotic parasites at 38.1 uM incubated for 48 hrs by Annexin V/7-AAD staining based flow cytometry analysis relative to control; format: functional
[33] = tested on: Leishmania amazonensis; assay: Antileishmanial activity against Leishmania amazonensis promastigotes assessed as necrotic parasites at 38.1 uM incubated for 48 hrs by Annexin V/7-AAD staining based flow cytometry analysis relative to control; format: functional
[34] = tested on: Leishmania amazonensis; assay: Antileishmanial activity against Leishmania amazonensis promastigotes assessed as early apoptotic parasites at 38.1 uM incubated for 72 hrs by Annexin V/7-AAD staining based flow cytometry analysis relative to control; format: functional
[35] = tested on: Leishmania amazonensis; assay: Antileishmanial activity against Leishmania amazonensis promastigotes assessed as viable apoptotic parasites at 38.1 uM incubated for 72 hrs by Annexin V/7-AAD staining based flow cytometry analysis relative to control; format: functional
[36] = tested on: Leishmania amazonensis; assay: Antileishmanial activity against Leishmania amazonensis promastigotes assessed as necrotic parasites at 38.1 uM incubated for 72 hrs by Annexin V/7-AAD staining based flow cytometry analysis relative to control; format: functional

IC50 [3]: 2200 nM
Activity [6]: Active
Activity [7]: Active
SMILES: COc1cc(-c2cc(-c3ccc4c(c3)OCO4)on2)c(Cl)c(OC)c1OC
Activity [1]: 99.5%
selectivity ratio [2]: 1.3
Activity [4]: Active
Activity [5]: Active
Activity [8]: 100 revertants/plate
Activity [9]: 19.7 revertants/plate
revertant count [10]: 9.7 revertants/plate
revertant count [11]: 23.3 revertants/plate
revertant count [12]: 32.7 revertants/plate
revertant count [13]: 103 revertants/plate
Activity [14]: 94.6 revertants/plate
revertant count [15]: 123 revertants/plate
Activity [16]: 116 revertants/plate
Activity [17]: 114 revertants/plate
Activity [18]: 204 revertants/plate
revertant count [19]: 139 revertants/plate
Activity [20]: 187 revertants/plate
Activity [21]: 142 revertants/plate
revertant count [22]: 109 revertants/plate
revertant count [23]: 161 revertants/plate
revertant count [24]: 100 revertants/plate
revertant count [25]: 194 revertants/plate
Activity [26]: 0.8%
Activity [27]: 0.4%
Activity [28]: 95.5%
Activity [29]: 0.3%
Activity [30]: 3.6%
Activity [31]: 0.6%
Activity [32]: 95.2%
Activity [33]: 0.6%
Activity [34]: 2.4%
Activity [35]: 93.2%
Activity [36]: 2.5%
